Reference: US6737383B1, “Herbicidal oxadiazolidines” (priority 1999, dated 2004)

Experiments:
morningglory = assay: Test B pre/postemergence morningglory; format: in vivo, Ipomoea hederacea
Method in brief: (§1)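 Test chemicals in a non-phytotoxic solvent mixture with surfactant were sprayed preemergence onto planted seeds and postemergence onto plants 2 to 18 cm tall (1- to 4-leaf stage). After twelve to sixteen days in a greenhouse, injury was visually rated against untreated controls from 0 (no effect) to 10 (complete control).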

blackgrass = assay: Test B pre/postemergence blackgrass; format: in vivo, Alopecurus myosuroides
Method in brief: as §1

rape = assay: Test B pre/postemergence rape; format: in vivo, Brassica napus
Method in brief: as §1

corn = assay: Test B pre/postemergence corn; format: in vivo, Zea mays
Method in brief: as §1

pigweed = assay: Test B pre/postemergence pigweed; format: in vivo, Amaranthus retroflexus
Method in brief: as §1

smallflower flatsedge = assay: Test B flood test smallflower flatsedge; format: in vivo, Cyperus difformis
Method in brief: (§2)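 Plants were grown to the 2-leaf stage before treatment with test chemical, then held in a greenhouse for twelve to sixteen days. Injury was visually rated against untreated controls on a 0–10 scale, where 0 is no effect and 10 is complete control.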

sugar beet = assay: Test B pre/postemergence sugar beet; format: in vivo, Beta vulgaris
Method in brief: as §1

soybean = assay: Test B pre/postemergence soybean; format: in vivo, Glycine max
Method in brief: as §1

purple nutsedge = assay: Test B pre/postemergence purple nutsedge; format: in vivo, Cyperus rotundus
Method in brief: as §1

velvetleaf = assay: Test B pre/postemergence velvetleaf; format: in vivo, Abutilon theophrasti
Method in brief: as §1

giant foxtail = assay: Test B pre/postemergence giant foxtail; format: in vivo, Setaria faberii
Method in brief: as §1

duck salad = assay: Test B flood test duck salad; format: in vivo, Heteranthera limosa
Method in brief: as §2

rice = assay: Test B flood test rice; format: in vivo, Oryza sativa
Method in brief: as §2

wheat = assay: Test B pre/postemergence wheat; format: in vivo, Triticum aestivum
Method in brief: as §1

cocklebur = assay: Test B pre/postemergence cocklebur; format: in vivo, Xanthium strumarium
Method in brief: as §1

crabgrass = assay: Test B pre/postemergence crabgrass; format: in vivo, Digitaria sanguinalis
Method in brief: as §1

[1] = Postemergence, Rate 62 g/ha, scale 0 to 10, 0 is no effect, 10 is complete control
[2] = Postemergence, Rate 250 g/ha, scale 0 to 10, 0 no effect, 10 complete control
[3] = Preemergence, Rate 31 g/ha, visual rating, scale 0 to 10 (0 no effect, 10 complete control)
[4] = Preemergence, Rate 62 g/ha, scale 0 to 10, 0 is no effect, 10 is complete control
[5] = Preemergence, Rate 125 g/ha, scale 0 to 10 (0 no effect, 10 complete control)
[6] = Preemergence, Rate 250 g/ha, scale of 0 to 10 where 0 is no effect and 10 is complete control
[7] = Rate 31 g/ha, Postemergence, scale 0 to 10
[8] = Rate 125 g/ha, Postemergence, scale 0 to 10, 0 no effect, 10 complete control
[9] = Rate 125 g/ha, Postemergence section (flood test species), scale 0 to 10, 0 no effect, 10 complete control
[10] = flood test, listed under Postemergence, Rate 250 g/ha, scale 0 to 10, 0 no effect, 10 complete control
[11] = Rate 500 g/ha, Postemergence section of Table B, 0 to 10 scale (0 no effect, 10 complete control)

Structure (SMILES): CCN(C(=O)n1oc(=O)n(-c2ccccc2OC)c1=O)C1CCCCC1 [Compound 29]
- Morningglory plant response rating (morningglory; [1]): 0
- Morningglory plant response rating (morningglory; [2]): 0
- Morningglory plant response rating (morningglory; [3]): 0
- Plant response rating, Morningglory (morningglory; [4]): 0
- Plant response rating, Morningglory (morningglory; [5]): 0
- Plant response rating, Morningglory (morningglory; [6]): 0
- Morningglory plant response rating (morningglory; [7]): 0
- Morningglory plant response rating (morningglory; [8]): 0
- Blackgrass plant response rating (blackgrass; [1]): 0
- Blackgrass plant response rating (blackgrass; [2]): 0
- Blackgrass plant response rating (blackgrass; [3]): 0
- Plant response rating, Blackgrass (blackgrass; [4]): 0
- Plant response rating, Blackgrass (blackgrass; [5]): 0
- Plant response rating, Blackgrass (blackgrass; [6]): 2
- Blackgrass plant response rating (blackgrass; [7]): 0
- Blackgrass plant response rating (blackgrass; [8]): 0
- Rape plant response rating (rape; [1]): 0
- Rape plant response rating (rape; [2]): 0
- Rape plant response rating (rape; [3]): 0
- Plant response rating, Rape (rape; [4]): 0
- Plant response rating, Rape (rape; [5]): 0
- Plant response rating, Rape (rape; [6]): 0
- Rape plant response rating (rape; [7]): 0
- Rape plant response rating (rape; [8]): 0
- Corn plant response rating (corn; [1]): 0
- Corn plant response rating (corn; [2]): 0
- Corn plant response rating (corn; [3]): 0
- Plant response rating, Corn (corn; [4]): 0
- Plant response rating, Corn (corn; [5]): 0
- Plant response rating, Corn (corn; [6]): 0
- Corn plant response rating (corn; [7]): 0
- Corn plant response rating (corn; [8]): 0
- Redroot pigweed plant response rating (pigweed; [1]): 0
- Redroot pigweed plant response rating (pigweed; [2]): 0
- Redroot pigweed plant response rating (pigweed; [3]): 0
- Plant response rating, Redroot pigweed (pigweed; [4]): 0
- Plant response rating, Redroot pigweed (pigweed; [5]): 0
- Plant response rating, Redroot pigweed (pigweed; [6]): 5
- Redroot pigweed plant response rating (pigweed; [7]): 0
- Redroot pigweed plant response rating (pigweed; [8]): 0
- S. Flatsedge plant response rating (smallflower flatsedge; [1]): 0
- S. Flatsedge plant response rating (smallflower flatsedge; [9]): 0
- S. Flatsedge plant response rating (smallflower flatsedge; [10]): 0
- Sugarbeets plant response rating (sugar beet; [1]): 0
- Sugarbeets plant response rating (sugar beet; [2]): 0
- Sugarbeets plant response rating (sugar beet; [3]): 0
- Plant response rating, Sugarbeets (sugar beet; [4]): 0
- Plant response rating, Sugarbeets (sugar beet; [5]): 0
- Plant response rating, Sugarbeets (sugar beet; [6]): 0
- Sugarbeets plant response rating (sugar beet; [8]): 0
- Soybean plant response rating (soybean; [1]): 2
- Soybean plant response rating (soybean; [2]): 2
- Soybean plant response rating (soybean; [3]): 0
- Plant response rating, Soybean (soybean; [4]): 0
- Plant response rating, Soybean (soybean; [5]): 0
- Plant response rating, Soybean (soybean; [6]): 0
- Soybean plant response rating (soybean; [8]): 2
- Nutsedge plant response rating (purple nutsedge; [1]): 0
- Nutsedge plant response rating (purple nutsedge; [2]): 0
- Nutsedge plant response rating (purple nutsedge; [3]): 0
- Plant response rating, Nutsedge (purple nutsedge; [4]): 0
- Plant response rating, Nutsedge (purple nutsedge; [5]): 0
- Plant response rating, Nutsedge (purple nutsedge; [6]): 0
- Nutsedge plant response rating (purple nutsedge; [7]): 0
- Nutsedge plant response rating (purple nutsedge; [8]): 0
- Velvetleaf plant response rating (velvetleaf; [1]): 0
- Velvetleaf plant response rating (velvetleaf; [2]): 0
- Velvetleaf plant response rating (velvetleaf; [3]): 0
- Plant response rating, Velvetleaf (velvetleaf; [4]): 0
- Plant response rating, Velvetleaf (velvetleaf; [5]): 0
- Plant response rating, Velvetleaf (velvetleaf; [6]): 0
- Velvetleaf plant response rating (velvetleaf; [8]): 0
- Giant foxtail plant response rating (giant foxtail; [1]): 0
- Giant foxtail plant response rating (giant foxtail; [2]): 0
- Giant foxtail plant response rating (giant foxtail; [3]): 0
- Plant response rating, Giant foxtail (giant foxtail; [4]): 0
- Plant response rating, Giant foxtail (giant foxtail; [5]): 1
- Plant response rating, Giant foxtail (giant foxtail; [6]): 3
- Giant foxtail plant response rating (giant foxtail; [7]): 0
- Giant foxtail plant response rating (giant foxtail; [8]): 0
- Ducksalad plant response rating (duck salad; [1]): 0
- Ducksalad plant response rating (duck salad; [9]): 0
- Ducksalad plant response rating (duck salad; [11]): 0
- Ducksalad plant response rating (duck salad; [10]): 0
- Rice plant response rating (rice; [1]): 0
- Rice plant response rating (rice; [9]): 0
- Rice plant response rating (rice; [11]): 0
- Rice plant response rating (rice; [10]): 0
- Wheat plant response rating (wheat; [1]): 0
- Wheat plant response rating (wheat; [2]): 0
- Wheat plant response rating (wheat; [3]): 0
- Plant response rating, Wheat (wheat; [4]): 0
- Plant response rating, Wheat (wheat; [5]): 0
- Plant response rating, Wheat (wheat; [6]): 0
- Wheat plant response rating (wheat; [8]): 0
- Cocklebur plant response rating (cocklebur; [1]): 0
- Cocklebur plant response rating (cocklebur; [2]): 0
- Cocklebur plant response rating (cocklebur; [3]): 0
- Plant response rating, Cocklebur (cocklebur; [4]): 0
- Plant response rating, Cocklebur (cocklebur; [5]): 0
- Plant response rating, Cocklebur (cocklebur; [6]): 0
- Cocklebur plant response rating (cocklebur; [7]): 0
- Cocklebur plant response rating (cocklebur; [8]): 0
- Crabgrass plant response rating (crabgrass; [1]): 0
- Crabgrass plant response rating (crabgrass; [2]): 0
- Crabgrass plant response rating (crabgrass; [3]): 0
- Plant response rating, Crabgrass (crabgrass; [4]): 3
- Plant response rating, Crabgrass (crabgrass; [5]): 4
- Plant response rating, Crabgrass (crabgrass; [6]): 7
- Crabgrass plant response rating (crabgrass; [7]): 0
- Crabgrass plant response rating (crabgrass; [8]): 0
